One data set deals with HIV-1 (IIIB). Briefly: cell-based HIV-1 replication assay in MT4-LTR-EGFP cells, wild type. The following applies: Human immunodeficiency virus 1, 72 h, 3 days, EGFP fluorescence. An excerpt:
MT4-LTR-enhanced green fluorescent protein (EGFP) cells were obtained by transfecting MT4 cells with a selectable construct encompassing the coding sequences for the HIV LTR as a promoter for the expression of EGFP and subsequent selection of permanently transfected cells. MT4-cytomegalovirus (CMV)-EGFP cells were obtained by selection for permanently transformed MT4 cells with a CMV-EGFP reporter gene. Cell lines were maintained in RPMI 1640 medium supplemented with 10% heat-inactivated fetal calf serum, 2 mM L-glutamine, 0.1% NaHCO3, and antibiotics (0.02% gentamicin and 0.8% G418) and incubated in a humidified incubator with a 5% CO2 atmosphere at 37° C.
The inhibitory antiviral activity of different compounds was determined in a cell-based HIV-1 replication assay. MT4-LTR-EGFP cells (150,000 cells/ml) were infected with HIV-1 (IIIB or SDM strains Q148R, N155H, or G140S-Q148H; multiplicity of infection [MOI] of 0.0025) in the presence or absence of inhibitor. After 3 days of incubation, the inhibition of HIV replication was quantified by measuring EGFP fluorescence, and expressed as the compound concentration required for 50% inhibition of HIV-1 replication in cell culture (EC50). The antiviral activities of the different compounds are reported in Table 4 and expressed as EC50 for the inhibition of wild type HIV (IIIB EC50) and as fold change in activity against the mutant strains (FC-Q148R, FC-N155H, FC-G140S-Q148H) compared to the activity against wild type HIV.

The subject of a further data set is HIV-1 SDM strain N155H. The data set is described as follows: cell-based HIV-1 replication assay in MT4-LTR-EGFP cells, N155H mutant. The following applies: fold change in activity against N155H mutant compared to wild type HIV.
The next data set has as its system HIV-1 LAI (IIIB). Briefly: antiviral assay in the presence of 50% human serum. In kind it is cell-based. The following applies: Human immunodeficiency virus 1, IIIB, 96 h, MT-4-LTR-EGFP cells, 4 days, resazurin cell viability. The method, boiled down:
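MT-4-LTR-EGFP cells were infected at MOI 0.001–0.01 CCID50/cell for 1 h, washed, then cultured 4 days with serially diluted compound in 50% human serum (10% FCS used in parallel). EC50/HS was derived from resazurin cell-viability readout.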
Background: Alamar Blue is a resazurin reagent that responds to reducing activity.

A short description of data set [1]: pharmacokinetic evaluation in the rat. Format: in vivo, male Sprague-Dawley rats. Conditions: 2 mg/kg, intravenous bolus 2 mg/kg; for clearance / half-life / Vd: male, Sprague-Dawley, plasma, iv; for clearance: read-out: CLp; for Vd: volume of distribution at steady-state, read-out: Vss. How it is done: For determining the pharmacokinetic properties in rat, each HIV integrase inhibitor was dissolved in PEG400/normal saline (70:30 (v/v)) at a nominal concentration of 1 mg/ml and administered (2 ml/kg) to male Sprague-Dawley rats (n=3 per test compound) as an intravenous bolus via a saphenous vein at a dose level of 2 mg/kg. […] Plasma was obtained by centrifugation and stored at −20° C. prior to analysis. Analysis was performed using liquid chromatography (LC) with tandem mass spectrometric detection (MS/MS) in positive ion mode. Each HIV integrase inhibitor was eluted from a reversed-phase column with a gradient of acetonitrile and water containing 0.1% (v/v) formic acid. At the time of analysis plasma samples (50 p. 1) were thawed and […] with 200 μl of acetonitrile containing 0.1% (v/v) formic acid and centrifuged. Aliquots of the supernatant (100 μl) were diluted with 200 μl of water containing 25% (v/v) methanol and 0.1% (v/v) formic acid and injected via an electrospray interface directly into the Mass Spectrometer. Calibration standards and quality controls were prepared in rat plasma at the same time as the samples and analyzed before and after the samples containing HIV integrase inhibitor. Non-compartmental pharmacokinetic analysis of the plasma concentration-time curves was performed using WinNonLin software to provide estimates of the plasma clearance (CLp), volume of distribution at steady-state (Vss) and terminal phase elimination half-life (t1/2).

Data set [2] deals with HIV-1 SDM strain G140S-Q148H. The data set is described as follows: cell-based HIV-1 replication assay in MT4-LTR-EGFP cells, G140S-Q148H mutant. The following applies: fold change in activity against G140S-Q148H mutant compared to wild type HIV.
The test system of data set [3] is cryopreserved hepatocytes of human subjects. Briefly: metabolic stability in human hepatocytes. Format: in vitro ADME. Conditions: 1 μM, percentage turnover; for Human (% TO) 15 min: 15 min incubation; for Human (% TO) 60 min: 60 min incubation. Here is the method:
(§1) For determining in vitro metabolic stability, cryopreserved hepatocytes from Sprague Dawley rats and of human subjects (pool of male and female) were obtained from an external supplier (Cellz Direct Inc., Paisly, UK). Tested compounds were dissolved in DMSO and this stock solution was used to spike rat and human hepatocyte cell cultures (10^6 cells/ml) at a final concentration of 1 μM (final percentage of DMSO was 0.02% (v/v)). Incubations were performed for up to 60 min at approximately 37° C. and terminated by the addition of two volumes of DMSO. Samples were then centrifuged and aliquots of the supernatant analyzed using liquid chromatography (LC) with electrospray mass spectrometric detection (MS/MS) to monitor the disappearance of parent compound by single reaction monitoring (SRM) and reverse-phase chromotatography with a gradient of acetonitrile and water containing 0.1% (v/v) formic acid. Based on peak area, the percentage of parent compound remaining after 15 and 60 min incubation was calculated and the results, expressed as percentage turnover (TO) relative to time zero controls.

Data set [4] deals with cryopreserved hepatocytes from Sprague Dawley rats. The data set is described as follows: metabolic stability in rat hepatocytes. In kind it is in vitro ADME. The following applies: 1 μM, percentage turnover; for Rat (% TO) 15 min: 15 min incubation; for Rat (% TO) 60 min: 60 min incubation. Here is the method:
as §1

A further data set deals with HIV-1 SDM strain Q148R. Briefly: cell-based HIV-1 replication assay in MT4-LTR-EGFP cells, Q148R mutant. The following applies: fold change in activity against Q148R mutant compared to wild type HIV.
Where [5] appears, read: terminal phase elimination half-life.

In turn, `CCN1C[C@H](C)n2c(c(O)c3c(=O)n4nc(c32)N(C)S(=O)(=O)CCCCOc2cc(F)ccc2C4)C1=O` [Compound 1] showed a melting point of 298.6 to 300.6 °C. Moreover, the midpoint of the response in the data set with HIV-1 (IIIB), the EC50, lay at 0.92 nM. The compound also displayed an FC-N155H with HIV-1 SDM strain N155H of 3.2. For the same compound, the concentration giving a half-maximal response (EC50) in the data set with HIV-1 LAI (IIIB) was 3 nM. In [1] (plasma clearance), the clearance was found to be 8 mL/min/kg. The half-life in [1] (setting [5]) was 4.8 h. For the same compound, in data set [1], the Vd amounted to 0.8 L/kg. Further, the FC-G140S-Q148H in [2] is given as 2.6. For the same compound, in data set [3], the “Human (% TO) 15 min” value is 16 % TO and the “Human (% TO) 60 min” value amounted to 31 % TO. Further, in [4], the “Rat (% TO) 15 min” value is 30 % TO and the “Rat (% TO) 60 min” value came to 42 % TO. Moreover, the FC-Q148R in the data set with HIV-1 SDM strain Q148R came to 0.7.

On to `CCN1C[C@H](C)n2c(c(O)c3c(=O)n4nc(c32)C(=O)NCCCCCOc2cc(F)ccc2C4)C1=O` [Compound 3], for which the melting point amounted to 128.21 °C. For the same compound, a half-maximal effect in the data set on HIV-1 (IIIB) (EC50) was put at 2.35 nM. The same compound came in with an FC-N155H with HIV-1 SDM strain N155H of 3.9. For the same compound, the EC50 in the data set with HIV-1 LAI (IIIB) stood at 13 nM. Also, in data set [1] (plasma clearance), the CLp was found to be 8 mL/min/kg and the clearance is 6 mL/min/kg. For the same compound, in data set [1] (setting [5]), the t1/2 worked out at 7.8 h and the half-life was 4.4 h. For the same compound, in [2], the FC-G140S-Q148H was 8.1. This compound also had an FC-Q148R with HIV-1 SDM strain Q148R of 0.9.

Consider `CCN1C[C@H](C)n2c(c(O)c3c(=O)n4nc(c32)C(=O)NCCCCCOc2cc(F)c(F)cc2C4)C1=O` [Compound 4], for which the melting point is 127.49 to 128.63 °C. The compound further had an EC50 in the data set on HIV-1 (IIIB) of 2.61 nM. In the data set on HIV-1 SDM strain N155H, this compound had an FC-N155H of 6.1. Moreover, the concentration for a half-maximal effect (EC50) in the data set on HIV-1 LAI (IIIB) came to 10 nM. Besides, the FC-G140S-Q148H in [2] was 10.9. The compound also gave an FC-Q148R in the data set on HIV-1 SDM strain Q148R of 1.2.

Compound `CCN1C[C@@H](C)n2c(c(O)c3c(=O)n(Cc4ccc(F)c(Cl)c4)nc(N4CCN(C)S4(=O)=O)c32)C1=O` [Compound 54r, reference compound] registered an EC50 in the data set on HIV-1 (IIIB) of 2.04 nM. The compound also returned an FC-N155H in the data set with HIV-1 SDM strain N155H of 4.4. Moreover, the concentration for a half-maximal effect (EC50) with HIV-1 LAI (IIIB) was 7 nM. Also, the clearance in [1] (plasma clearance) worked out at 40 mL/min/kg. Further, in data set [1] (setting [5]), the half-life is 1.5 h. In data set [1], the Vd was 2.2 L/kg. Besides, the FC-G140S-Q148H in [2] was 3.1. Besides, in data set [3], the “Human (% TO) 15 min” value amounted to 16 % TO and the “Human (% TO) 60 min” value amounted to 23 % TO. Further, in data set [4], the “Rat (% TO) 15 min” value is given as 32 % TO and the “Rat (% TO) 60 min” value is given as 46 % TO. In the data set on HIV-1 SDM strain Q148R, this compound displayed an FC-Q148R of 0.4.

As a reminder, the EC50 is the concentration at which the effect is half-maximal. Broadly, the melting point is the temperature, or range, at which the solid turns liquid. The term half-life denotes the time needed for the level to fall by half in the phase considered. Higher therefore signals slow loss.
